Assay: Viscosity of cyanoacrylate monomer, oligomer and formulation
Format: physicochemical
Conditions: monomer free of 4-methoxyphenol and SO2
Source text: In one embodiment, an alkyl cyanoacrylate monomer can be treated to form an alkyl cyanoacrylate oligomer with viscosity greater than the alkyl cyanoacrylate monomer. For example, an n-hexyl cyanoacrylate monomer can be treated to form an n-hexyl cyanoacrylate oligomer. Preferred oligomers result from photochemical treatment of an alkyl cyanoacrylate monomer, to produce a mixture that includes partially polymerized cyanoacrylate and that has a higher viscosity than the alkyl cyanoacrylate monomer from which it is formed. For example, the viscosity of the alkyl cyanoacrylate oligomer can advantageously be from about 10 centipoise to about 1000 centipoise and the viscosity of the alkyl cyanoacrylate monomer, from which the alkyl cyanoacrylate oligomer is formed, can be from about 2 centipoise to about 5 centipoise as measured by a rheometer. Typically, the oligomer will have a viscosity of from about 10 centipoise to about 50 centipoise.
The purified n-hexyl cyanoacrylate monomer from Example 1, containing 4-methoxyphenol, was treated with Aldrich HQ & MEHQ inhibitor remover, Sigma-Aldrich, Inc., St. Louis, Mo., USA (2005-2006 Catalog #306320), to remove the p-methoxyphenol, followed by bubbling argon through the n-hexyl cyanoacrylate monomer to remove SO2. The viscosity of the purified n-hexyl cyanoacrylate, free of 4-methoxyphenol and SO2, was ˜4 centipoise. […]

viscosity: ~4 centipoise
Substance: n-hexyl cyanoacrylate
